In brackets after ≈: the same amount, converted by molar mass. Numbered stars: 1 amine (or outer) side, 2 acyl side, 3 side chain; on linkers, the order of the positions; unused ones are H or OH. Bridge positions count the residues as written; N and C are the ends. Square brackets hold non-standard residues; d marks the D form. Peptide text beside a SMILES is read from it. * marks the point of attachment. X3 = O=C([C@@H](Cc1ccc(CS(=O)(=O)O)cc1)N[*:1])[*:2]; Dab(CH2SO3H) = N[C@@H](CCNCS(=O)(=O)O)C(=O)O; Heptanoyl(6-Me) = CC(C)CCCCC(=O)*; Nonanoyl = CCCCCCCCC(=O)*; Heptanoyl = CCCCCCC(=O)*; Orn = NCCC[C@H](N)C(=O)O; Dab = NCC[C@H](N)C(=O)O; Dap = NC[C@H](N)C(=O)O
Legend:
Assay type in all cases: cell-based
[1] = test system: Acinetobacter baumannii ABA19-1; details: ABA19-1
Procedure: (§1) The minimal inhibitory concentration (MIC) was determined by the broth microdilution method according to the recommended procedures of the Clinical and Laboratory Standards Institute (CLSI).
(§2) An appropriate amount of the cyclic lipopeptide compounds prepared in Examples 1-120 and the reference standards were weighed and dissolved in sterile pure water. An appropriate volume of the mother solution was subjected to ten-fold dilution with sterile Mueller-Hinton (MH) broth to a concentration of 0.256 mg/mL. Half of the drug solution was aliquoted into 96-well reagent reservoirs, while the other half was subjected to two-fold serial dilution with sterile MH broth before being transferred into deep-well reagent reservoirs. The above steps were repeated, so that the drug concentrations in the reagent reservoirs were adjusted to 128, 64, 32, 16, 8, 4, 2, 1, 0.5, 0.25, 0.125 and 0.06 mg/L in sequence, and all solutions were prepared and used immediately. Several colonies were picked from agar plates cultured for 18-24 h and directly suspended in sterile normal saline, and the concentration of the bacterial suspension was adjusted to 0.5 McFarland units. The calibrated bacterial suspension was diluted with MH broth to a concentration of (4-8) × 10^5 colony-forming units per milliliter (CFU/mL) and prepared and used immediately. A volume of 100 µL of the aforementioned compounds of the present disclosure (e.g., the compounds prepared in the examples) and reference solutions at different concentrations was separately pipetted into wells 1 to 12 of sterile 96-well polystyrene plates, and an additional 100 µL of the aforementioned inoculum was added to each well. The final concentrations of the samples in the wells were adjusted to 64, 32, 16, 8, 4, 2, 1, 0.5, 0.25, 0.125, 0.06 and 0.03 mg/L, respectively, and the final concentration of the inoculum in each well was (2-4) × 10^5 CFU/mL. Additional growth control wells were set up, each containing 100 µL of the inoculum and 100 µL of sterile MH broth. The test substances and inocula in all wells were mixed thoroughly and then sealed. The inoculated 96-well plates were incubated in an incubator at 35-37°C for 16-20 h.
(§3) The strains used for the antibacterial activity assay were obtained from the American Type Culture Collection (ATCC) and clinical isolates.
(§4) The strains employed for the antibacterial activity assay included Escherichia coli ATCC BAA-2523, ATCC BAA-2340 (KPC), Klebsiella pneumoniae KPN+19-15, ATCC BAA-1705 (KPC), Pseudomonas aeruginosa PAE19-3, ATCC 27853, Acinetobacter baumannii ABA19-1, and NCTC 13304 (OXA-27).

[2] = test system: Acinetobacter baumannii NCTC 13304 (OXA-27); details: NCTC 13304
Procedure: as §1, §2, §3, §4

[3] = test system: Escherichia coli ATCC BAA-2340 (KPC); details: ATCC BAA-2340
Procedure: as §1, §2, §3, §4

[4] = test system: Escherichia coli ATCC BAA-2523; details: ATCC BAA-2523
Procedure: as §1, §2, §3, §4

[5] = test system: Klebsiella pneumoniae ATCC BAA-1705 (KPC); details: ATCC BAA-1705
Procedure: as §1, §2, §3, §4

[6] = test system: Klebsiella pneumoniae KPN+19-15; details: KPN+19-15
Procedure: as §1, §2, §3, §4

[7] = test system: Pseudomonas aeruginosa ATCC 27853; details: ATCC 27853
Procedure: as §1, §2, §3, §4

[8] = test system: Pseudomonas aeruginosa PAE19-3; details: PAE19-3
Procedure: as §1, §2, §3, §4

[9] = Nephrotoxicity assay: in vitro cytotoxicity of HK-2 cells by CCK-8 assay; details: human, HK-2 cells (human renal), 72 h incubation with drug-containing medium
Procedure: In vitro cytotoxicity detection of HK-2 cells was performed by the CCK-8 assay.
The culture medium for human renal HK-2 cells was a complete RPMI-1640 medium (Invitrogen) supplemented with 10% fetal bovine serum (FBS, Gibco). The cryopreservation solution was composed of 90% FBS and 10% dimethyl sulfoxide (DMSO), and the cells were preserved long-term in liquid nitrogen. Cells were cultured in a sterile incubator with a humidified atmosphere containing 5% CO2 at 37°C. When the cell density reached 70%-80%, cell digestion and subculture were conducted. The cyclic lipopeptide compounds prepared in Examples 1-120 were weighed and dissolved in sterile water to prepare a mother solution with a concentration of 1 mg/mL. Drug-containing culture media were then formulated, with the final concentrations set as 500, 250, 200, 100, 50, 25, and 12.5 µg/mL, respectively. Cells were adjusted to a density of 5 × 10^4 cells/mL and seeded into 96-well plates, with 100 µL of cell suspension added to each well. After stable incubation for 24 h, the original medium was replaced with the prepared drug-containing medium, and the plates were incubated in the incubator for an additional 72 h. The medium was gently aspirated, and 100 µL of blank medium containing 10% CCK-8 was added to each well. After incubation in the incubator for 3 h, the optical density (OD) values at 450 nm were measured using a BIOTEK microplate reader. The experiment was repeated three times. For each replicate, polymyxin B was set as the positive drug, and a drug-free blank group was established as the control. The cell viability (%) was calculated by the formula: Cell viability (%) = [(OD of drug-treated group - OD of zero-setting) / (OD of drug-free group - OD of zero-setting)] × 100%. The half-maximal inhibitory concentration (IC50) values were calculated through logarithmic regression analysis.
The cells used for the nephrotoxicity assay were obtained from the ATCC ( American Type Culture Collection). The Cell Counting Kit-8 (CCK-8) used in the assay was supplied by Beyotime Biotechnology Co., Ltd.

## CC(C)CCCCC(=O)N[C@@H](CCN)C(=O)N[C@H](C(=O)N[C@@H](CN)C(=O)N[C@H]1CCNC(=O)[C@H]([C@@H](C)O)NC(=O)[C@H](CCN)NC(=O)[C@H](CCNCS(=O)(=O)O)NC(=O)[C@H]([C@@H](C)O)NC(=O)[C@@H](Cc2ccccc2)NC(=O)[C@H](CCN)NC1=O)[C@@H](C)O [Compound 119, 6-methylheptanoyl-Dab-Thr-Dap-ring(4-10)[Dab-Dab-D-Phe-Thr-Dab(CH2SO3H)-Dab-Thr]] ({Heptanoyl(6-Me)}-[Dab]T[Dap][Dab][Dab][dF]T[Dab(CH2SO3H)][Dab]T; lactam 4-C)
[1]
  MIC: 0.25 µg/mL (≈ 0.199 µM)
[2]
  MIC: 0.06 µg/mL (≈ 0.0477 µM)
[3]
  MIC: 0.06 µg/mL (≈ 0.0477 µM)
[4]
  MIC: 0.06 µg/mL (≈ 0.0477 µM)
[5]
  MIC: 0.125 µg/mL (≈ 0.0994 µM)
[6]
  MIC: 0.125 µg/mL (≈ 0.0994 µM)
[7]
  MIC: 0.25 µg/mL (≈ 0.199 µM)
[8]
  MIC: 0.5 µg/mL (≈ 0.398 µM)
[9]
  IC50 at 72 h: > 500 µg/mL

## CC(C)CCCCC(=O)N[C@@H](CCN)C(=O)N[C@H](C(=O)N[C@@H](CN)C(=O)N[C@H]1CCNC(=O)[C@H]([C@@H](C)O)NC(=O)[C@H](CCN)NC(=O)[C@H](CCN)NC(=O)[C@H]([C@@H](C)O)NC(=O)[C@@H](Cc2ccc(CS(=O)(=O)O)cc2)NC(=O)[C@H](CCN)NC1=O)[C@@H](C)O [Compound 116, 6-methylheptanoyl-Dab-Thr-Dap-ring(4-10)[Dab-Dab-D-Phe(4-CH2SO3H)-Thr-Dab-Dab-Thr]] ({Heptanoyl(6-Me)}-[Dab]T[Dap][Dab][Dab][X3]T[Dab][Dab]T; lactam 4-C)
[1]
  MIC: 0.06 µg/mL (≈ 0.0477 µM)
[2]
  MIC: 0.06 µg/mL (≈ 0.0477 µM)
[3]
  MIC: 0.03 µg/mL (≈ 0.0239 µM)
[4]
  MIC: 0.03 µg/mL (≈ 0.0239 µM)
[5]
  MIC: 0.125 µg/mL (≈ 0.0994 µM)
[6]
  MIC: 0.125 µg/mL (≈ 0.0994 µM)
[7]
  MIC: 0.25 µg/mL (≈ 0.199 µM)
[8]
  MIC: 0.25 µg/mL (≈ 0.199 µM)
[9]
  IC50 at 72 h: > 500 µg/mL

## CCCCCCC(=O)N[C@@H](CCN)C(=O)N[C@H](C(=O)N[C@@H](CN)C(=O)N[C@H]1CCNC(=O)[C@H]([C@@H](C)O)NC(=O)[C@H](CCN)NC(=O)[C@H](CCN)NC(=O)[C@H](CC(C)C)NC(=O)[C@@H](Cc2ccccc2)NC(=O)[C@H](CCN)NC1=O)[C@@H](C)O [Compound 39, Heptanoyl-Dab-Thr-Dap-ring(4-10)[Dab-Dab-D-Phe-Leu-Dab-Dab-Thr]] (Heptanoyl-[Dab]T[Dap][Dab][Dab][dF]L[Dab][Dab]T; lactam 4-C)
[1]
  MIC: 0.03 µg/mL (≈ 0.0258 µM)
[2]
  MIC: 0.03 µg/mL (≈ 0.0258 µM)
[3]
  MIC: 0.03 µg/mL (≈ 0.0258 µM)
[4]
  MIC: 0.03 µg/mL (≈ 0.0258 µM)
[5]
  MIC: 0.03 µg/mL (≈ 0.0258 µM)
[6]
  MIC: 0.03 µg/mL (≈ 0.0258 µM)
[7]
  MIC: 0.06 µg/mL (≈ 0.0517 µM)
[8]
  MIC: 0.5 µg/mL (≈ 0.431 µM)
[9]
  IC50 at 72 h: 357 ± 8.1 µg/mL (≈ 307 µM)

## CCCCCCCCC(=O)N[C@@H](CCCN)C(=O)N[C@H](C(=O)N[C@H](CO)C(=O)N[C@H]1CCNC(=O)[C@H]([C@@H](C)O)NC(=O)[C@H](CCN)NC(=O)[C@H](CCN)NC(=O)[C@H]([C@@H](C)O)NC(=O)[C@@H](Cc2ccccc2)NC(=O)[C@H](CCN)NC1=O)[C@@H](C)O [Compound 60, Nonanoyl-Orn-Thr-D-Ser-ring(4-10)[Dab-Dab-D-Phe-Thr-Dab-Dab-Thr]] (Nonanoyl-[Orn]T[dS][Dab][Dab][dF]T[Dab][Dab]T; lactam 4-C)
[1]
  MIC: 0.25 µg/mL (≈ 0.21 µM)
[2]
  MIC: 0.25 µg/mL (≈ 0.21 µM)
[3]
  MIC: 0.25 µg/mL (≈ 0.21 µM)
[4]
  MIC: 0.25 µg/mL (≈ 0.21 µM)
[5]
  MIC: 0.25 µg/mL (≈ 0.21 µM)
[6]
  MIC: 0.5 µg/mL (≈ 0.419 µM)
[7]
  MIC: 64 µg/mL (≈ 53.7 µM)
[8]
  MIC: 8 µg/mL (≈ 6.71 µM)
[9]
  IC50 at 72 h: 281 ± 9.5 µg/mL (≈ 235 µM)

— EP4725957A1, “GROUP OF CYCLIC ALKALINE LIPOPEPTIDE COMPOUNDS, AND PREPARATION METHOD THEREFOR AND USE THEREOF” (Institute of Medicinal Biotechnology, Chinese Academy of …, priority 2023, dated 2024)
